Data as given in US4507487A, “Chemical compounds” (Bristol-Myers Company, priority 1983, dated 1985).
Converted amounts (≈) assume the structure as drawn. Like-named read-outs stand apart in the source and are kept apart here.

Experiments:
Type in all cases: cell-based
[1] = tested on: Penicillinsensitive S. aureus; assay: MIC, two-fold serial agar dilution in Mueller-Hinton agar, group (G+)-Ia; settings: Staphylococcus aureus, read-out: Geometric Mean of MIC
Description: (§1) In the primary evaluation of the compounds of this invention, the Minimum Inhibitory Concentrations (MIC's) of the compounds were determined by the two-fold serial agar dilution method in Mueller-Hinton agar against 32 strains of test organisms in six groups.

[2] = tested on: Penicillinresistant S. aureus; assay: MIC, two-fold serial agar dilution in Mueller-Hinton agar, group (G+)-Ib; settings: Staphylococcus aureus, read-out: Geometric Mean of MIC
Description: as §1
(G+)Ib: Penicillinresistant S. aureus (5 strains)

[3] = tested on: Cephalothinsensitive E. coli, Kl. pneumoniae and Pr. mirabilis; assay: MIC, two-fold serial agar dilution in Mueller-Hinton agar, group (G-)-Ia; settings: read-out: Geometric Mean of MIC
Description: as §1
(G-)Ia: Cephalothinsensitive E. coli (2 strains), Kl. pneumoniae (1
strain) and Pr. mirabilis (2 strains)

[4] = tested on: Cephalothinresistant E. coli and Kl. pneumoniae; assay: MIC, two-fold serial agar dilution in Mueller-Hinton agar, group (G-)-Ib; settings: read-out: Geometric Mean of MIC
Description: as §1
(G-)Ib: Cephalothinresistant E. coli (3 strains) and Kl. pneumoniae (3

[5] = tested on: M. morganii, Ent. cloacae and Ser. marcescens; assay: MIC, two-fold serial agar dilution in Mueller-Hinton agar, group (G-)-II; settings: read-out: Geometric Mean of MIC
Description: as §1
(G-)II: M. morganii (1 strain), Ent. cloacae (2 strains) and Ser.

Ps. aeruginosa = assay: MIC, two-fold serial agar dilution in Mueller-Hinton agar, group (G-)-III; settings: Pseudomonas aeruginosa, Ps. aeruginosa (6 strains), read-out: Geometric Mean of MIC
Description: as §1

[6] = (G+)-Ia, penicillin-sensitive S. aureus (5 strains)
[7] = (G+)-Ib, penicillin-resistant S. aureus (5 strains)
[8] = (G-)-Ia, cephalothin-sensitive E. coli (2), Kl. pneumoniae (1), Pr. mirabilis (2 strains)
[9] = (G-)-II, M. morganii (1), Ent. cloacae (2), Ser. marcescens (2 strains)

| SMILES | MIC [1, 6] [µg/mL] | MIC [2, 7] [µg/mL] | MIC [3, 8] [µg/mL] | MIC [4] [µg/mL] | MIC [5, 9] [µg/mL] | MIC (Ps. aeruginosa) [µg/mL] | MIC [5] [µg/mL] | MIC [1] [µg/mL] | MIC [2] [µg/mL] | MIC [3] [µg/mL] |
| --- | --- | --- | --- | --- | --- | --- | --- | --- | --- | --- |
| Cc1scc[n+]1CC1=C(C(=O)[O-])N2C(=O)C(NC(=O)/C(=N\OC3(C(=O)O)CCC3)c3csc(N)n3)[C@H]2SC1 (stereo partly drawn) [Example 11, 7-[(Z)-2-(2-Aminothiazol-4-yl)-2-(1-carboxycyclobut-1-oxyimino)acetamido]-3-(2-methylthiazolio)methyl-3-cephem-4-carboxylate] | 4.2 (≈ 7.26 µM) | 9.5 (≈ 16.4 µM) | 0.076 (≈ 0.131 µM) | 1.6 (≈ 2.77 µM) | 0.4 (≈ 0.691 µM) | 2.1 (≈ 3.63 µM) |  |  |  |  |
| CCSc1scc[n+]1CC1=C(C(=O)[O-])N2C(=O)C(NC(=O)/C(=N\OC3(C(=O)O)CCC3)c3csc(N)n3)[C@H]2SC1 (stereo partly drawn) [Example 12, 7-[(Z)-2-(2-Aminothiazol-4-yl)-2-(1-carboxycyclobut-1-oxyimino)acetamido]-3-(2-ethylthiothiazolio)methyl-3-cephem-4-carboxylate] | 1.8 (≈ 2.88 µM) | 4.7 (≈ 7.52 µM) | 0.066 (≈ 0.106 µM) | 0.79 (≈ 1.26 µM) | 0.4 (≈ 0.64 µM) | 5.7 (≈ 9.12 µM) |  |  |  |  |
| Cc1c(CCO)sc[n+]1CC1=C(C(=O)[O-])N2C(=O)C(NC(=O)/C(=N\OC(C)(C)C(=O)O)c3csc(N)n3)C2SC1 (stereo not drawn) [Example 6, 7-[(Z)-2-(2-Aminothiazol-4-yl)-2-(2-carboxyprop-2-oxyimino)acetamido]-3-[5-(2-hydroxyethyl)-4-methylthiazolio]methyl-3-cephem-4-carboxylate] | 8.3 (≈ 13.6 µM) | 25 (≈ 40.9 µM) | 0.076 (≈ 0.124 µM) | 1.8 (≈ 2.95 µM) | 2.8 (≈ 4.58 µM) | 4.4 (≈ 7.2 µM) |  |  |  |  |
| CNc1scc[n+]1CC1=C(C(=O)[O-])N2C(=O)C(NC(=O)/C(=N\OC(C)(C)C(=O)O)c3csc(N)n3)[C@H]2SC1 (stereo partly drawn) [Example 15, 7-[(Z)-2-(2-Aminothiazol-4-yl)-2-(2-carboxyprop-2-oxyimino)acetamido]-3-(2-methylaminothiazolio)methyl-3-cephem-4-carboxylate] | 7.2 (≈ 12.4 µM) | 25 (≈ 43 µM) | 0.4 (≈ 0.688 µM) | 5.5 (≈ 9.46 µM) |  | 13 (≈ 22.3 µM) | 3.6 (≈ 6.19 µM) |  |  |  |
| C#CCO/N=C(\C(=O)NC1C(=O)N2C(C(=O)[O-])=C(C[n+]3ccsc3SC)CS[C@H]12)c1csc(N)n1 (stereo partly drawn) [Example 17, 7-[(Z)-2-(2-Aminothiazol-4-yl)-2-propargyloxyiminoacetamido]-3-(2-methylthiothiazolio)methyl-3-cephem-4-carboxylate] |  |  |  | 0.6 (≈ 1.09 µM) |  | 6.9 (≈ 12.5 µM) | 0.69 (≈ 1.25 µM) | 0.23 (≈ 0.418 µM) | 0.8 (≈ 1.45 µM) | 0.66 (≈ 1.2 µM) |
| CO/N=C(\C(=O)NC1C(=O)N2C(C(=O)[O-])=C(C[n+]3csc(CCN)c3C)CSC12)c1csc(N)n1 (stereo not drawn) [Example 10, 7-[(Z)-2-(2-Aminothiazol-4-yl)-2-methoxyiminoacetamido]-3-[5-(2-aminoethyl)-4-methylthiazolio]methyl-3-cephem-4-carboxylate] | 2.1 (≈ 3.91 µM) | 6.3 (≈ 11.7 µM) | 0.8 (≈ 1.49 µM) | 1.4 (≈ 2.6 µM) |  | 22 (≈ 40.9 µM) | 5.5 (≈ 10.2 µM) |  |  |  |
| CC(C)(O/N=C(\C(=O)NC1C(=O)N2C(C(=O)[O-])=C(C[n+]3ccsc3)CSC12)c1csc(N)n1)C(=O)O (stereo not drawn) [Example 5, 7-[(Z)-2-(2-Aminothiazol-4-yl)-2-(2-carboxyprop-2-oxyimino)acetamido]-3-thiazoliomethyl-3-cephem-4-carboxylate] | 8.3 (≈ 15 µM) | 25 (≈ 45.2 µM) | 0.13 (≈ 0.235 µM) | 2.5 (≈ 4.52 µM) |  | 3.1 (≈ 5.61 µM) | 3.6 (≈ 6.51 µM) |  |  |  |
| CC(C)(O/N=C(\C(=O)NC1C(=O)N2C(C(=O)[O-])=C(C[n+]3ccsc3N)CS[C@H]12)c1csc(N)n1)C(=O)O (stereo partly drawn) [Example 8, 7-[(Z)-2-(2-Aminothiazol-4-yl)-2-(2-carboxyprop-2-oxyimino)acetamido]-3-(2-amino-3-thiazolio)methyl-3-cephem-4-carboxylate] | 5.5 (≈ 9.69 µM) | 14 (≈ 24.7 µM) | 0.15 (≈ 0.264 µM) | 4 (≈ 7.05 µM) | 8.3 (≈ 14.6 µM) | 5.6 (≈ 9.87 µM) |  |  |  |  |
